Data as given in article PMC10449631 (Nature Chemical Biology, 2023).
Where “and” joins values, the source holds several entries; their conditions need not be identical. Identical values can stand only once. No end group written: not given here.

Molecular target: T1, PaAP_T (P. aeruginosa aminopeptidase, C-terminal truncated) (Pseudomonas aeruginosa, UniProt Q02PA2)
T1 construct: PaAP (WT, residues 27–536); His6 (TEV cleavable) (N, cleaved yes); made in house; host or cells: E. coli SHuffle T7
Assay: Inhibition of PaAP_T in the Leu-pNA aminopeptidase assay (KI, IC50)
Assay type: biochemical
Details: for IC50 plot data (PaAP_T activity at given peptide concentration): (S) = 2 mM, PaAP 100 nM, listed as ERWGHDFIK (linear)
Description: Aminopeptidase activity was determined spectrophotometrically primarily using amino Leu-pNA. Other commercially available pNA substrates (isoleucine, methionine, alanine, valine, proline, arginine, lysine and phenylalanine) were also assayed. Leu-pNA was incubated with enzyme (100 nM) in assay buffer (50 mM Tris, pH 8.5, 200 mM NaCl) at 25 °C. A pNA release caused an absorbance increase at 405 nm, monitored using a BMG Labtech plate reader. […] Data were plotted in GraphPad Prism (version 9) and the Michalis Menten equation was used for fitting.
Inhibition assays were carried out with the following peptides: linear-ERWGHDFIK (PaAP C-terminal residues), cyclic-ERWGHDFIK, N-acetylated and C-amidated ERWGHDFIK. IC50 values were determined by varying peptide concentration at a fixed substrate concentration (fixed at KM, (S) = 2 mM, PaAP concentration was 100 nM). […] KI values were determined by fitting the data to equation (1) (Morrison’s equation):1 v=1−Et+I+KI−Et+I+KI^2−4EtIKI/2Et where v is the velocity, Et is the total enzyme concentration, I is the concentration of inhibitor and KI is the equilibrium dissociation constant for the inhibitor. IC50 values increased when measured at increasing S, consistent with competitive inhibition.

T1 sequence (Q02PA2 37-516, looked up, natural form): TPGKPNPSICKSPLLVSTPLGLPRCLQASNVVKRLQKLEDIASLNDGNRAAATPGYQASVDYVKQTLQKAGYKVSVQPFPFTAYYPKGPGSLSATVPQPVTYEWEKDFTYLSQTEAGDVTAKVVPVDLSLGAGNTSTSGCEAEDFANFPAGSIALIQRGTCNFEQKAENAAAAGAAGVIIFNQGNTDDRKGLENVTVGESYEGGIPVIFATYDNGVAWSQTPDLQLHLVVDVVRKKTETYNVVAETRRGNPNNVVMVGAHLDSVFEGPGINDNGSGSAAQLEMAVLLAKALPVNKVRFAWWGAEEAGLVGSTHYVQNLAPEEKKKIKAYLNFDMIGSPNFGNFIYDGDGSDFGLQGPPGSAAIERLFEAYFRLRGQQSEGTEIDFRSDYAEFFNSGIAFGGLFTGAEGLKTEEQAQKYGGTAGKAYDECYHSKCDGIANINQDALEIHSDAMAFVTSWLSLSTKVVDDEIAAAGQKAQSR

ERWGHDFIK [linear-ERWGHDFIK]
Ki: 9.98 µM
Slope (inhibitor 1 μM, [S] 0.125 mM): 21.4683 and 20.3052 and 17.979
Slope (inhibitor 1 μM, [S] 0.25 mM): 41.2291 and 37.1458 and 30.365
Slope (inhibitor 1 μM, [S] 0.5 mM): 67.9068 and 67.7954 and 67.0654
Slope (inhibitor 1 μM, [S] 1 mM): 121.633 and 131.285 and 109.532
Slope (inhibitor 1 μM, [S] 2 mM): 200.701 and 204.537 and 171.128
Slope (inhibitor 1 μM, [S] 4 mM): 291.524 and 268.014 and 241.411
Slope (inhibitor 5 μM, [S] 0.125 mM): 9.581 and 8.778 and 8.696
Slope (inhibitor 5 μM, [S] 0.25 mM): 32.4809 and 31.8746 and 26.7767
Slope (inhibitor 5 μM, [S] 0.5 mM): 59.2205 and 59.9629 and 55.5826
Slope (inhibitor 5 μM, [S] 1 mM): 96.3415 and 104.397 and 108.74
Slope (inhibitor 5 μM, [S] 2 mM): 181.646 and 174.716 and 170.509
Slope (inhibitor 5 μM, [S] 4 mM): 244.875 and 240.668 and 225.201
Slope (inhibitor 10 μM, [S] 0.125 mM): 20.5527 and 17.7562 and 12.5469
Slope (inhibitor 10 μM, [S] 0.25 mM): 41.2291 and 35.2155 and 27.5686
Slope (inhibitor 10 μM, [S] 0.5 mM): 78.3873 and 67.5108 and 53.8255
Slope (inhibitor 10 μM, [S] 1 mM): 125.469 and 113.021 and 101.823
Slope (inhibitor 10 μM, [S] 2 mM): 183.502 and 182.636 and 149.35
Slope (inhibitor 10 μM, [S] 4 mM): 242.153 and 233.244 and 209.115
Slope (inhibitor 25 μM, [S] 0.125 mM): 6.59 and 5.065
Slope (inhibitor 25 μM, [S] 0.25 mM): 13.4378 and 10.2466 and 12.344
Slope (inhibitor 25 μM, [S] 0.5 mM): 24.5618 and 19.0802 and 21.3817
Slope (inhibitor 25 μM, [S] 1 mM): 49.4576 and 37.8759 and 44.6938
Slope (inhibitor 25 μM, [S] 2 mM): 81.2827 and 58.2058 and 83.8441
Slope (inhibitor 25 μM, [S] 4 mM): 157.641 and 123.551 and 157.764
Slope (inhibitor 50 μM, [S] 0.25 mM): 11.9777 and 10.1576 and 8.79
Slope (inhibitor 50 μM, [S] 0.5 mM): 21.0971 and 19.6494 and 15.7888
Slope (inhibitor 50 μM, [S] 2 mM): 58.0945 and 62.2891 and 43.8276
Slope (inhibitor 50 μM, [S] 4 mM): 81.3941 and 82.5449 and 61.3735
Slope (inhibitor 100 μM, [S] 0.125 mM): 4.015 and 2.528
Slope (inhibitor 100 μM, [S] 0.25 mM): 7.23 and 6.8674 and 5.4469
Slope (inhibitor 100 μM, [S] 0.5 mM): 11.4246 and 12.4479 and 9.504
Slope (inhibitor 100 μM, [S] 1 mM): 22.1736 and 23.0274 and 17.6325
Slope (inhibitor 100 μM, [S] 2 mM): 38.6801 and 37.22 and 41.7859
Slope (inhibitor 100 μM, [S] 4 mM): 61.8313 and 63.972 and 50.5094
IC50 plot data (PaAP_T activity at given peptide concentration) (log(I) 0): 90.0485 and 96.6538 and 93.9669
IC50 plot data (PaAP_T activity at given peptide concentration) (log(I) 0.39794): 67.4338 and 85.0852 and 79.5995
IC50 plot data (PaAP_T activity at given peptide concentration) (log(I) 0.69897): 45.9385 and 56.7981 and 56.8354
IC50 plot data (PaAP_T activity at given peptide concentration) (log(I) 1): 21.9729 and 26.522 and 23.891
IC50 plot data (PaAP_T activity at given peptide concentration) (log(I) 1.39794): 12.1508 and 12.1918 and 12.9158
IC50 plot data (PaAP_T activity at given peptide concentration) (log(I) 1.69897): 10.3856 and 11.9269 and 11.4231
IC50 plot data (PaAP_T activity at given peptide concentration) (log(I) 2): 9.945 and 11.4156 and 11.076
IC50 plot data (PaAP_T activity at given peptide concentration) (log(I) -0.30103): 92.6981 and 112.924 and 94.3774
